Laboratory results from patent publication US20260315484A1, “METHODS OF TREATING CANCER IN BCL2 INHIBITOR NAIVE SUBJECTS” (Curis, Inc., priority 2023, published 2026).

Columns and labels:
bone marrow (BM) blasts = test: Clinical study of change in bone marrow blasts, BLC2 inhibitor naive vs prior-exposed patients; type: in vivo, human patients
Excerpt: FIG. 1A is a graph showing the results of a clinical study for the efficacy of emavusertib (Compound 1) administration on reducing bone marrow (BM) blasts in patients with blood cancer. Blasts are immature white blood cells that are usually found in small numbers in healthy bone marrow. High levels of blasts circulating in the blood are associated with cancer. This clinical study measured the change in blast levels before and after receiving Compound 1 treatment. Here, the relative change in blast levels before and after Compound 1 is compared between patients who had previously received BLC2 inhibitors in prior treatment and patients who were naïve to BLC2 inhibitors. The comparison groups each contain 22 high risk myelodysplastic syndrome (hrMDS) patients and 10 acute myeloid leukemia (AML) patients.
FIG. 1B is a graph showing baseline and best post-treatment blast levels of the subjects in FIG. 1A. […] Each patient is shaded according to their diagnosis, with high-risk myelodysplastic syndrome (MDS) patients tending to have lower blast levels than acute myeloid leukemia (AML) patients.
To support the development of effective treatment regimens with Compound 1, a study was conducted to monitor bone marrow (BM) samples obtained from AML and high risk MDS patients with different prior histories of treatment.
(§1) • Pharmacokinetic parameters of Compound 1 measured by Cmax, Cmin, Tmax, AUC0-24, AUC0-inf, and T1/2 (time frame 24 months) • Clinical response in AML or hrMDS assessed as follows: • AML: • Proportion of patients who reach CR+CRh • Proportion of patients who reach CRi, or CR or CRh • hrMDS: overall response rate of CR+PR+mCR • Transfusion independence
This is a Phase 1, open-label dose escalation and cohort expansion study of Compound 1 as a monotherapy in patients with AML or MDS and in combination with AZA in treatment-naïve, adult patients with AML or hrMDS, after first line therapy.

AML and high-risk MDS = test: Ongoing Phase 1 study in relapsed/refractory AML and high-risk MDS; type: in vivo, human patients; details: patients with relapsed/refractory AML and high-risk MDS
Method: To support the development of effective treatment regimens with Compound 1, a study was conducted to monitor bone marrow (BM) samples obtained from AML and high risk MDS patients with different prior histories of treatment. […]
• MTD (defined as the highest dose at which there is <33% dose-limiting toxicity rate in the first cycle of treatment in a minimum of 6 patients [time frame: 28 days]) • RP2D (determined by the Sponsor in consultation with the CSC, considering all aspects of safety, tolerability, biologic activity, pharmacokinetic and preliminary efficacy in the trial population [time frame: 24 months]) • Safety measured by adverse events, ECGs, chemistry and hematology laboratory values, vital signs, and physical examinations […]
as §1, with “independence […]” for “independence”

[1] = Study Compound 1-101 (safety, exposure, activity at 200 mg BID); type: in vivo
Excerpt: Three patients with AML or MDS will be enrolled at the designated dose. If none of the first 3 patients experience a dose-limiting toxicity during the first cycle, patients may be enrolled into the next higher dose level. If 1 patient out of the first 3 experiences a dose-limiting toxicity, the dose level may be expanded with an additional 3 patients.

Cc1cc(-c2nc(C(=O)Nc3cc4oc(N5CCOCC5)nc4nc3N3CC[C@@H](O)C3)co2)ccn1 [Compound 1]
rate of response to Compound 1, as evidenced by reduced BM blast counts (bone marrow (BM) blasts; AML and high risk MDS, no history of BLC2 inhibitor treatment vs prior exposure): higher rate of response to Compound 1, as evidenced by reduced BM blast counts in hematology, compared to patients who had prior exposure to a BLC2 inhibitor
decrease in bone marrow blast counts from baseline to best post-baseline (bone marrow (BM) blasts; no prior vs prior BLC2 inhibitor exposure, hrMDS and AML patients, FIG. 1B): significantly higher decreases in bone marrow blast counts from baseline to best post-baseline compared to those subjects with prior BLC2 inhibitor exposure
relative change in bone marrow blast levels before and after Compound 1 (bone marrow (BM) blasts; patients naive to BLC2 inhibitors (e.g., venetoclax) vs previously exposed, comparison groups each 22 hrMDS and 10 AML, FIG. 1A): significant reduction in blasts compared to those who had been previously exposed to BLC2 inhibitors
clinical activity (AML and high-risk MDS): demonstrated clinical activity
biologic activity and clinical efficacy [1]: demonstrating signs of biologic activity and clinical efficacy
drug exposure [1]: capable of achieving relevant levels of drug exposure
safety of starting dose [1]: safe
